Consider one compound from patent US10624876B2, “Derivatives of indole for the treatment of endometriosis” (BIOKINESIS, priority 2016, dated 2020).

Molecules are shown by their SMILES.

The test relates to endometriosis lesions. Description: Ex vivo clinical evaluation of endometriosis lesions (intraperitoneal uterine horn implants) in syngenic mice. To be noted: estradiol at D-1, implants at D0, nanosuspension (50 mg/mL) i.v. 100 mg/kg/BW every 2 days from D7 to D21, sacrificed at D23, versus control group (Vehicle). How it is done: FIG. 2: Ex vivo clinical evaluation (implant volume (mm^3) and weight (g)) in syngenic mice.
Example 1: Echographic and Ex Vivo Evaluation of Endometriosis Lesions in Syngenic Mice Treated with Compound 38
More particularly, 20 syngenic mices were engraved estradiol at D-1. Intraperitoneal Uterine Horsn implant have been implanted in each mouse at DO. A nanosuspension of compound 38 (50 mg/mL) has been intravenously administered in 10 mice (treated group) at a 100 mg/kg/BW dose from D7 to D21 every 2 days.
Mices have been sacrified at D23 and implants have been removed for ex vivo clinical evaluation.

Consider `COc1ccc(C#N)cc1/C=C(\C#N)c1c[nH]c2ccc(Br)cc12` [Compound 38, (Z)-3-(2-(5-bromo-1H-indol-3-yl)-2-cyanovinyl)-4-methoxybenzonitrile], for which the implant volume entry is “lower than those of the control group” and the implant weight result is “lower than those of the control group”.
